Results from US11306079B2, “3-(5-amino-pyrazin-2-yl)-benzenesulfonamide derivatives and related compounds as PI3K-gamma kinase inhibitors” (Incyte Corporation, priority 2017, dated 2022).
Where a name gives a salt, the structure may show the parent alone.

Columns and labels:
[1] = target: PI3Kγ (p110γ) Recombinant Human Protein (Homo sapiens (Human), UniProt P48736); experiment: PI3K-γ Scintillation Proximity Assay; format: biochemical; conditions: 20 μM PIP2, 2 μM ATP, 13 nM PI3Kγ, 120 min, room temperature
Sequence of PI3Kγ (p110γ) Recombinant Human Protein (P48736 whole entry): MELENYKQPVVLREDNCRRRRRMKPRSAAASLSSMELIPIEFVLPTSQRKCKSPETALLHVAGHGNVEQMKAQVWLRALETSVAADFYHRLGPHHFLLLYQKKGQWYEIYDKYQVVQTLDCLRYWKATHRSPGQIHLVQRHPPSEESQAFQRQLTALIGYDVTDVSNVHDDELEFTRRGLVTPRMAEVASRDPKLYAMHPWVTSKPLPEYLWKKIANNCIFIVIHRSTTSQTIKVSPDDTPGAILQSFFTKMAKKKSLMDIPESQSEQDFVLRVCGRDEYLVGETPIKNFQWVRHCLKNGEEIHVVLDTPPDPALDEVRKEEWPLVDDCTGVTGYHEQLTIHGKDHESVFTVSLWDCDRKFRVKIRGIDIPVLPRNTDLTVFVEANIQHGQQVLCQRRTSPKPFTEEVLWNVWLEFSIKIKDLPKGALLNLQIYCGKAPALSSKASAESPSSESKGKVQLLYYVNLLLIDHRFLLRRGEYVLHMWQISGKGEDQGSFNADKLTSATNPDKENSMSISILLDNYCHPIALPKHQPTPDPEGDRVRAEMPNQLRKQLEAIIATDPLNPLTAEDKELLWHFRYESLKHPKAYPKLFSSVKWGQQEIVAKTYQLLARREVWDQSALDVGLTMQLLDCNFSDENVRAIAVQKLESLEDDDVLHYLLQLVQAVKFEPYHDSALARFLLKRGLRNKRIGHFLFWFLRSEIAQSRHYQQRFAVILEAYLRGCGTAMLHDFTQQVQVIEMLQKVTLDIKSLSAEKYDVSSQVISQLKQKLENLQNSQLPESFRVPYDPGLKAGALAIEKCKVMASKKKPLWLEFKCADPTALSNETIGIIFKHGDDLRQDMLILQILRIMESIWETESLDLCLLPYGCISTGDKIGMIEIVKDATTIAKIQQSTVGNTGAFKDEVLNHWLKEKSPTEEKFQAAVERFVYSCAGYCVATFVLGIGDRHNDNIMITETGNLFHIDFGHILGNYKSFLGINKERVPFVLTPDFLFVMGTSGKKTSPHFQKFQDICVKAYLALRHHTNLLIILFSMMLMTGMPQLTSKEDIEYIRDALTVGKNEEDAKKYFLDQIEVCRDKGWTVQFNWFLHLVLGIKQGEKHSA
Procedure, shortened: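 Recombinant human p110γ (13 nM) phosphorylated 20 μM PIP2 with 2 μM ATP plus [γ-33P]ATP in 20 mM MOPS pH 6.7, 10 mM MgCl2, 5 mM DTT, 0.03% CHAPS, 2% DMSO, 120 min at room temperature. Radiolabelled product was captured on WGA SPA beads and counted. IC50 came from curves of percent solvent-control activity.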

[2] = target: PI3Kδ (p110δ/p85α) Recombinant Human Protein (Homo sapiens (Human), UniProt O00329); experiment: PI3Kδ Scintillation Proximity Assay; format: biochemical; conditions: 20 μM PIP2, 2 μM ATP, 3.4 nM PI3Kδ, 120 min, room temperature
Sequence of PI3Kδ (p110δ/p85α) Recombinant Human Protein (O00329 whole entry): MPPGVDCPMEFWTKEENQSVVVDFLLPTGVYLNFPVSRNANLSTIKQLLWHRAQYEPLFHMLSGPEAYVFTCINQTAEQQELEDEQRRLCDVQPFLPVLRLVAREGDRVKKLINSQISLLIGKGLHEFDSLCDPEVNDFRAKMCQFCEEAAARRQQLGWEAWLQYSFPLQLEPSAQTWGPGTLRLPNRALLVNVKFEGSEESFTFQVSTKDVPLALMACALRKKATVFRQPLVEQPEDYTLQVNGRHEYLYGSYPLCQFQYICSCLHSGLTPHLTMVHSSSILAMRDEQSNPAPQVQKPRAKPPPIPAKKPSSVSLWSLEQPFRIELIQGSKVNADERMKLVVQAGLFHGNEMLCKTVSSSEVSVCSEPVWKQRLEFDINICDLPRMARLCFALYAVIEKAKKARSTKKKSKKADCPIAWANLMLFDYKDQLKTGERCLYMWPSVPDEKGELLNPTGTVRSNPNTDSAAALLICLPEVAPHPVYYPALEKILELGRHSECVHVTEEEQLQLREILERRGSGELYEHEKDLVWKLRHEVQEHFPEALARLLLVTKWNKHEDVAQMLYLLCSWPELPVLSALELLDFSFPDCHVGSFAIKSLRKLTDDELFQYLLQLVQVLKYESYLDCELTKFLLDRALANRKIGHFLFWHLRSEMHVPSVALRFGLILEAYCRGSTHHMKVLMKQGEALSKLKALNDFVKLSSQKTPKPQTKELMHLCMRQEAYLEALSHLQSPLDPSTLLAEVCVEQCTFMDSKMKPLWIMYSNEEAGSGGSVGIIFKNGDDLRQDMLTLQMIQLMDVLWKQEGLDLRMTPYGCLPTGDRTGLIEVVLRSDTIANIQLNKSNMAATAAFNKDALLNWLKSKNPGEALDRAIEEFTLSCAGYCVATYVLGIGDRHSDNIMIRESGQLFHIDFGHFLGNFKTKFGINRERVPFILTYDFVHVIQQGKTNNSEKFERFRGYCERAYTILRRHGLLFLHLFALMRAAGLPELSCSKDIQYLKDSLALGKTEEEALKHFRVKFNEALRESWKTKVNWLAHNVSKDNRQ
Sequence of PI3Kδ (p110δ/p85α) Recombinant Human Protein (P27986 whole entry partner): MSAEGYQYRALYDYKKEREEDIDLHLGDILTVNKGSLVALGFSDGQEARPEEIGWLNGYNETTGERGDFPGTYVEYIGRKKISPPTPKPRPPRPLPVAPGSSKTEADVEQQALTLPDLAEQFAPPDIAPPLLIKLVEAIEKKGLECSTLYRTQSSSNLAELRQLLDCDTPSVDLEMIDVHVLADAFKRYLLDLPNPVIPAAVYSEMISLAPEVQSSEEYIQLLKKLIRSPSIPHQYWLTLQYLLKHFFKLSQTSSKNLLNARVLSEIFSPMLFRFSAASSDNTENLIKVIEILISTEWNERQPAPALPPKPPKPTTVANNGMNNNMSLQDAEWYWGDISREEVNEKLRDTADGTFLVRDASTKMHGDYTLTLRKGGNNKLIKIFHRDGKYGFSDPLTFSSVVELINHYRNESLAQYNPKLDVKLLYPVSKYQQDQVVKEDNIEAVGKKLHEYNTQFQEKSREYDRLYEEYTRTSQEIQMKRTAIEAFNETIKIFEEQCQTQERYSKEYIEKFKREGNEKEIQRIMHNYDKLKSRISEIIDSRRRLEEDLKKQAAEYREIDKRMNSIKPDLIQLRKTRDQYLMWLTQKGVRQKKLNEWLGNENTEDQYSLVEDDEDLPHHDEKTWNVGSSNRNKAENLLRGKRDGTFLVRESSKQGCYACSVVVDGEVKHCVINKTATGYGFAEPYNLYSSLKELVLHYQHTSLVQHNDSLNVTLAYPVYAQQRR
Procedure, shortened: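 Assay conditions: 2 μM ATP (radiolabelled), 20 μM PIP2, 3.4 nM PI3Kδ, 20 mM MOPS pH 6.7 with 10 mM MgCl2, 5 mM DTT, 0.03% CHAPS, 2 h at room temperature. Signal from bead-captured 33P product; IC50 versus solvent control.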

[3] = tested on: Phosphorylated Ribosomal Protein S6 (RPS6) in THP-1 cells; experiment: THP-1 RPS6 ELISA Assay; format: cell-based; conditions: Homo sapiens; serum starved THP-1 cells, 2 hours with compound, 10 nM MCP-1 for 15 minutes, Phospho-RPS6 ELISA; read-out: PI3Kγ_THP1_RPS6_ELISA IC50
Procedure, shortened: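 Phospho-RPS6 in lysates measured by ELISA at 450 nm, corrected at 540 nm, after MCP-1 challenge (10 nM, 15 min) of THP-1 cells that were starved overnight and exposed to test compound for 2 h at 37° C, 2×10^5 cells/well. Curve fit of percent inhibition gives IC50.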

SMILES	IC50 [1] [nM]	IC50 [2] [nM]	IC50 [3] [nM]
Cc1ncc(-c2nc(-c3cc(S(=O)(=O)NC45CCC(O)(CC4)C5)ccc3C)cnc2N)s1 [Example 7, 3-(5-Amino-6-(2-methylthiazol-5-yl)pyrazin-2-yl)-N-(4-hydroxybicyclo[2.2.1]heptan-1-yl)-4-methylbenzenesulfonamide trifluoroacetate salt]	≤ 100	≤ 100	≤ 100
O=C(O)C(F)(F)F.[2H]C([2H])([2H])c1ccc(S(=O)(=O)NC23CNC(C2)C3)cc1-c1cnc(N)c(-c2cnco2)n1 [Example 56, 3-(5-Amino-6-(oxazol-5-yl)pyrazin-2-yl)-N-(2-azabicyclo[2.1.1]hexan-4-yl)-4-(methyl-d3)benzenesulfonamide trifluoroacetate salt]	≤ 100	≤ 500	≤ 1000
[2H]C([2H])([2H])c1ccc(S(=O)(=O)NC23CCC(C#N)(C2)C3)cc1-c1cnc(N)c(-c2ccncn2)n1 [Example 72, 3-(5-Amino-6-(pyrimidin-4-yl)pyrazin-2-yl)-N-(4-cyanobicyclo[2.1.1]hexan-1-yl)-4-(methyl-d3)benzenesulfonamide trifluoroacetate salt]	≤ 100	≤ 100	≤ 100
Cc1ncc(-c2nc(-c3cc(S(=O)(=O)NC45CC(C#N)(C4)C5)ccc3C)cnc2N)s1 [Example 1, 3-(5-Amino-6-(2-methylthiazol-5-yl)pyrazin-2-yl)-N-(3-cyanobicyclo[1.1.1]pentan-1-yl)-4-methylbenzenesulfonamide Trifluoroacetate Salt]	≤ 100	≤ 100	≤ 100
CCOC(=O)NC12CC(NS(=O)(=O)c3ccc(C)c(-c4cnc(N)c(-n5cncn5)n4)c3)(C1)C2 [Example 39, Ethyl 3-(3-(5-amino-6-(1H-1,2,4-triazol-1-yl)pyrazin-2-yl)-4-methylphenylsulfonamido)bicyclo[1.1.1]pentan-1-ylcarbamate Trifluoroacetate Salt]	≤ 100	≤ 500	≤ 500
O=C(O)C(F)(F)F.[2H]C([2H])([2H])c1ccc(S(=O)(=O)NC23CNC(C2)C3)cc1-c1cnc(N)c(-c2cnc(C3CC3)s2)n1 [Example 55, 3-(5-Amino-6-(2-cyclopropylthiazol-5-yl)pyrazin-2-yl)-N-(2-azabicyclo[2.1.1]hexan-4-yl)-4-(methyl-d3)benzenesulfonamide trifluoroacetate salt]	≤ 100	≤ 100	≤ 500
[2H]C([2H])([2H])c1ccc(S(=O)(=O)NC23CCC(O)(CC2)C3)cc1-c1cnc(N)c(-n2cncn2)n1 [Example 47, 3-(5-Amino-6-(1H-1,2,4-triazol-1-yl)pyrazin-2-yl)-N-(4-hydroxybicyclo[2.2.1]heptan-1-yl)-4-(methyl-d3)benzenesulfonamide Trifluoroacetate Salt]	≤ 100	≤ 100	≤ 100
Cc1ccc(S(=O)(=O)NC23CCC(C#N)(C2)C3)cc1-c1cnc(N)c(-c2cn(C)nc2C)c1 [Example 82, 3-(6-Amino-5-(1,3-dimethyl-1H-pyrazol-4-yl)pyridin-3-yl)-N-(4-cyanobicyclo[2.1.1]hexan-1-yl)-4-methylbenzenesulfonamide]	≤ 100	≤ 500	≤ 1000
Cc1ncc(-c2nc(-c3cc(S(=O)(=O)NC45COC(C(C)O)(C4)C5)ccc3C)cnc2N)s1 (stereo not drawn) [Example 8, 3-(5-Amino-6-(2-methylthiazol-5-yl)pyrazin-2-yl)-N-(1-(1-hydroxyethyl)-2-oxabicyclo[2.1.1]hexan-4-yl)-4-methylbenzenesulfonamide trifluoroacetate salt]	≤ 100	≤ 100	≤ 100
[2H]C([2H])([2H])c1ccc(S(=O)(=O)NC23CCC(C#N)(C2)C3)cc1-c1cnc(N)c(-c2ncccn2)n1 [Example 70, 3-(5-Amino-6-(pyrimidin-2-yl)pyrazin-2-yl)-N-(4-cyanobicyclo[2.1.1]hexan-1-yl)-4-(methyl-d3)benzenesulfonamide trifluoroacetate salt]	≤ 100	< 2000	≥ 1000
[2H]C([2H])([2H])c1ccc(S(=O)(=O)NC23CC(C#N)(C2)C3)cc1-c1cnc(N)c(-n2cncn2)n1 [Example 48, 3-(5-Amino-6-(1H-1,2,4-triazol-1-yl)pyrazin-2-yl)-N-(3-cyanobicyclo[1.1.1]pentan-1-yl)-4-(methyl-d3)benzenesulfonamide Trifluoroacetate Salt]	≤ 100	≤ 500	≤ 100
[2H]C([2H])([2H])c1ccc(S(=O)(=O)NC23CC(C#N)(C2)C3)cc1-c1cnc(N)c(-c2ccnc(SC)n2)n1 [Example 76, 3-(5-Amino-6-(2-(methylthio)pyrimidin-4-yl)pyrazin-2-yl)-N-(3-cyanobicyclo[1.1.1]pentan-1-yl)-4-(methyl-d3)benzenesulfonamide]	≤ 100	≤ 100	≤ 100
Cc1ccc(S(=O)(=O)NC23CCC(C#N)(C2)C3)cc1-c1cnc(N)c(-c2ncn(C)n2)n1 [Example 46, 3-(5-Amino-6-(1-methyl-1H-1,2,4-triazol-3-yl)pyrazin-2-yl)-N-(4-cyanobicyclo[2.1.1]hexan-1-yl)-4-methylbenzenesulfonamide Trifluoroacetate Salt]	≤ 100	≤ 100	≤ 500
[2H]C([2H])([2H])c1ccc(S(=O)(=O)NC23CCC(O)(C2)C3)cc1-c1cnc(N)c(-c2cnco2)n1 [Example 74, 3-(5-Amino-6-(oxazol-5-yl)pyrazin-2-yl)-N-(4-hydroxybicyclo[2.1.1]hexan-1-yl)-4-(methyl-d3)benzenesulfonamide trifluoroacetate salt]	≤ 100	≤ 500	≤ 100
Cc1ccc(S(=O)(=O)NC23CCC(C#N)(C2)C3)cc1-c1cnc(N)c(-n2nccn2)n1 [Example 42, 3-(5-Amino-6-(2H-1,2,3-triazol-2-yl)pyrazin-2-yl)-N-(4-cyanobicyclo[2.1.1]hexan-1-yl)-4-methylbenzenesulfonamide Trifluoroacetate Salt]	≤ 100	≤ 500	≤ 100
Cc1ccc(S(=O)(=O)NC23CC(C#N)(C2)C3)cc1-c1cnc(N)c(-n2cncn2)n1 [Example 23, 3-(5-Amino-6-(1H-1,2,4-triazol-1-yl)pyrazin-2-yl)-N-(3-cyanobicyclo[1.1.1]pentan-1-yl)-4-methylbenzenesulfonamide Trifluoroacetate Salt]	≤ 100	≤ 100	≤ 500
[2H]C([2H])([2H])c1ccc(S(=O)(=O)NC23CC(C#N)(C2)C3)cc1-c1cnc(N)c(-c2cnco2)n1 [Example 73, 3-(5-Amino-6-(oxazol-5-yl)pyrazin-2-yl)-N-(3-cyanobicyclo[1.1.1]pentan-1-yl)-4-(methyl-d3)benzenesulfonamide trifluoroacetate salt]	≤ 100	≤ 100	≤ 100
[2H]C([2H])([2H])c1ccc(S(=O)(=O)NC23CC(CO)(C2)C3)cc1-c1cnc(N)c(-c2cnco2)n1 [Example 75, 3-(5-Amino-6-(oxazol-5-yl)pyrazin-2-yl)-N-(3-(hydroxymethyl)bicyclo[1.1.1]pentan-1-yl)-4-(methyl-d3)benzenesulfonamide trifluoroacetate salt]	≤ 100	≤ 500	≤ 100
